Measurements reported in patent US20100267561A1, “HERBICIDAL PYRIDAZINONE DERIVATIVES” (priority 2007, published 2010).
Read-outs that look alike come from different tables or passages of the source.

Columns and labels:
Assay type in all cases: in vivo
[1] = tested on: yellow nutsedge (Cyperus esculentus); assay: Test B pre-/postemergence plant response; conditions: for Nutsedge, Yellow plant response rating: 8 g ai/ha; for pest or weed control at 16 g/ha / pest or weed control at 31 g/ha / pest or weed control at 62 g/ha: Cyperus, read-out: Plant response rating, Nutsedge, Yellow; for pest or weed control at 16 g/ha: 16 g ai/ha; for pest or weed control at 31 g/ha: 31 g ai/ha; for pest or weed control at 62 g/ha: 62 g ai/ha
Summary of the method: (§1)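 Seeds were sown and sprayed preemergence, while plants at 2 to 18 cm (1- to 4-leaf stage) got postemergence sprays. Compounds were formulated in a non-phytotoxic solvent mixture with surfactant. After 13 to 15 days in a greenhouse, injury was rated visually against untreated controls, 0 (no effect) to 100 (complete control).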

[2] = tested on: blackgrass (Alopecurus myosuroides); assay: Test B pre-/postemergence plant response; conditions: for pest or weed control at 31 g/ha: 31 g ai/ha; for pest or weed control at 62 g/ha: 62 g ai/ha
Summary of the method: as §1

[3] = tested on: catchweed bedstraw (Galium aparine); assay: Test B pre-/postemergence plant response; conditions: Preemergence
Summary of the method: as §1

[4] = tested on: large crabgrass (Digitaria sanguinalis); assay: Test A pre-/postemergence plant response; conditions: Digitaria sanguinalis, 240 h, read-out: Plant response rating, Crabgrass, Large; for pest or weed control at 125 g/ha: 125 g ai/ha; for pest or weed control at 500 g/ha: 500 g ai/ha
Summary of the method: (§2)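 Scores reflect visual plant injury relative to untreated controls on a 0–100 scale, recorded approximately 10 days after simultaneous preemergence soil spraying and postemergence spraying of one- to two-leaf seedlings grown in loam–sand.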

[5] = tested on: pigweed (Amaranthus retroflexus); assay: Test A pre-/postemergence plant response; conditions: Amaranthus retroflexus, 240 h, read-out: Plant response rating, Pigweed; for pest or weed control at 125 g/ha: 125 g ai/ha; for pest or weed control at 500 g/ha: 500 g ai/ha
Summary of the method: as §2

[6] = tested on: corn (Zea mays); assay: Test A pre-/postemergence plant response; conditions: Zea mays, 240 h; for Corn plant response rating (crop injury, 0 = no effect, 100 = complete kill) at 125 g/ha: 125 g ai/ha; for Corn plant response rating (crop injury, 0 = no effect, 100 = complete kill) at 500 g/ha: 500 g ai/ha
Summary of the method: as §2

[7] = tested on: velvetleaf (Abutilon theophrasti); assay: Test A pre-/postemergence plant response
Summary of the method: as §2

[8] = tested on: wheat (Triticum aestivum); assay: Test A pre-/postemergence plant response; conditions: Triticum aestivum, 240 h, read-out: Plant response rating, Wheat; for plant injury at 125 g/ha: 125 g ai/ha; for plant injury at 500 g/ha: 500 g ai/ha
Summary of the method: as §2

[9] = tested on: barnyardgrass (Echinochloa crus-galli); assay: Test A pre-/postemergence plant response; conditions: Echinochloa crus-galli, 240 h, read-out: Plant response rating, Barnyardgrass; for pest or weed control at 125 g/ha: 125 g ai/ha; for pest or weed control at 500 g/ha: 500 g ai/ha
Summary of the method: as §2

[10] = tested on: morningglory (Ipomoea coccinea); assay: Test A pre-/postemergence plant response
Summary of the method: as §2

[11] = tested on: giant foxtail (Setaria faberi); assay: Test A pre-/postemergence plant response; conditions: Setaria faberi, 240 h, read-out: Plant response rating, Foxtail, Giant; for pest or weed control at 125 g/ha: 125 g ai/ha; for pest or weed control at 500 g/ha: 500 g ai/ha
Summary of the method: as §2

[12] = post-emergence, Postemergence, scale 0 to 100, 0 no effect, 100 complete control
[13] = Alopecurus myosuroides, post-emergence, Postemergence, scale 0 to 100, 0 no effect, 100 complete control, read-out: Plant response rating, Blackgrass
[14] = post-emergence, Postemergence, 0 to 100 scale, 0 no effect, 100 complete control
[15] = pre-emergence, Preemergence, 0 to 100 scale (0 no effect, 100 complete control)
[16] = Postemergence, 125 g ai/ha, 0 to 100 scale, 0 no effect, 100 complete control
[17] = Postemergence, 500 g ai/ha, 0 to 100 scale, 0 no effect, 100 complete control
[18] = Preemergence, 125 g ai/ha, 0 to 100 scale (0 no effect, 100 complete control)
[19] = Preemergence, 500 g ai/ha, 0 to 100 scale (0 no effect, 100 complete control)

CCc1c(C)c(-c2ccc(Cl)cc2)nn1-c1c(O)cnn(C)c1=O [Compound 26, 4-[3-(4-chlorophenyl)-5-ethyl-4-methyl-1H-pyrazol-1-yl]-5-hydroxy-2-methyl-3(2H)-pyridazinone]
90%: pest or weed control at 125 g/ha [4, 15] | Corn plant response rating (crop injury, 0 = no effect, 100 = complete kill) at 500 g/ha [6, 15] | pest or weed control at 125 g/ha [11, 14]
85%: pest or weed control at 31 g/ha ([2]; Alopecurus myosuroides, pre-emergence, Preemergence, 0 to 100 scale, 0 no effect, 100 complete control, read-out: Plant response rating, Blackgrass)
60%: Corn plant response rating (crop injury, 0 = no effect, 100 = complete kill) at 125 g/ha [6, 14] | plant injury at 500 g/ha [8, 14]
70%: plant injury at 500 g/ha [8, 15]
0%: pest or weed control at 16 g/ha ([1]; post-emergence, Postemergence, scale 0 to 100) | pest or weed control at 31 g/ha [1, 12] | pest or weed control at 62 g/ha [1, 12] | pest or weed control at 16 g/ha ([1]; pre-emergence, Preemergence, scale 0 to 100 (0 no effect, 100 complete control)) | pest or weed control at 31 g/ha ([1]; pre-emergence, Preemergence, 0 to 100 scale, 0 no effect, 100 complete control) | pest or weed control at 62 g/ha ([1]; pre-emergence, Preemergence, scale 0 to 100) | pest or weed control at 16 g/ha ([3]; Galium aparine, pre-emergence, 16 g ai/ha, scale 0 to 100 (0 no effect, 100 complete control), read-out: Plant response rating, Galium) | pest or weed control at 31 g/ha ([3]; Galium aparine, pre-emergence, 31 g ai/ha, 0 to 100 scale, 0 no effect, 100 complete control, read-out: Plant response rating, Galium) | pest or weed control at 62 g/ha ([3]; Galium aparine, pre-emergence, 62 g ai/ha, scale 0 to 100, read-out: Plant response rating, Galium) | pest or weed control at 125 g/ha [5, 14] | pest or weed control at 500 g/ha [5, 14] | pest or weed control at 125 g/ha [5, 15] | pest or weed control at 500 g/ha [5, 15] | plant injury at 125 g/ha [8, 14]
0: Nutsedge, Yellow plant response rating ([1]; postemergence, 0-100 scale) | Nutsedge, Yellow plant response rating ([1]; Preemergence, scale 0 to 100) | Blackgrass plant response rating ([2]; 8 g ai/ha, postemergence, 0-100 scale) | Galium plant response rating ([3]; 8 g ai/ha, scale 0 to 100) | Plant response rating, Velvetleaf [7, 16] | Plant response rating, Velvetleaf [7, 18] | Plant response rating, Velvetleaf [7, 19] | Plant response rating, Morningglory [10, 16] | Plant response rating, Morningglory [10, 18] | Plant response rating, Morningglory [10, 19]
80%: pest or weed control at 31 g/ha [2, 13] | pest or weed control at 62 g/ha [2, 13] | pest or weed control at 125 g/ha [4, 14]
100%: pest or weed control at 62 g/ha ([2]; Alopecurus myosuroides, pre-emergence, Preemergence, scale 0 to 100, read-out: Plant response rating, Blackgrass) | pest or weed control at 500 g/ha [4, 14] | pest or weed control at 500 g/ha [4, 15] | Corn plant response rating (crop injury, 0 = no effect, 100 = complete kill) at 500 g/ha [6, 14] | pest or weed control at 125 g/ha [9, 14] | pest or weed control at 500 g/ha [9, 14] | pest or weed control at 125 g/ha [9, 15] | pest or weed control at 500 g/ha [9, 15] | pest or weed control at 500 g/ha [11, 14] | pest or weed control at 125 g/ha [11, 15] | pest or weed control at 500 g/ha [11, 15]
20%: plant injury at 125 g/ha [8, 15]
50%: pest or weed control at 16 g/ha ([2]; Alopecurus myosuroides, post-emergence, Postemergence, 16 g ai/ha, scale 0 to 100, read-out: Plant response rating, Blackgrass) | Corn plant response rating (crop injury, 0 = no effect, 100 = complete kill) at 125 g/ha [6, 15]
20: Plant response rating, Velvetleaf [7, 17] | Plant response rating, Morningglory [10, 17]
